Experimental data taken from US4300011A, “Selective production of aromatics” (Mobil Oil Corporation, priority 1980, dated 1981).

Legend:
[1] = Effective critical dimension from CPK space-filling atomic models; type: physicochemical
Text: The concept of an "effective critical dimension" of a molecule is described by Breck on pages 633 to 641 in Zeolite Molecular Sieves, John Wiley & Sons, Inc. (1974), the entire contents of which are incorporated herein by reference. Generally, this dimension is the smallest dimension that will permit passage through the pores of the zeolite, i.e., the dimension that most nearly approaches the pore size of the zeolite. For example, the critical dimension of n-hexane is the thickness not the length, while the critical dimension for benzene is the cross-sectional diameter, rather than the thickness.
Effective critical dimensions for the purposes of this invention were determined by the use of CPK (Corey-Pauling-Koltun) space-filling atomic models, obtained from Ealing Corporation, Natick, Mass. The following Table illustrates critical dimensions measured from such models with corresponding pKa values for several heterocyclic compounds.

[2] = cited from earlier work; for pKa: from Katritzky, Physical Methods in Heterocyclic Chemistry

| Effective Critical Dimension [1] [Angstroms] | SMILES | pKa [2] | relative base strength ([2]; versus 1,10-phenanthroline) |
| --- | --- | --- | --- |
| 8.3 | Cc1ccc2ccc3ccc(C)nc3c2n1 [Neocuproine, 2,9-dimethyl-1,10-phenanthroline] |  |  |
| 7.4 | Cc1ccnc2c(C)cccc12 [4,8-Dimethylquinoline] |  |  |
| 7.9 | Cc1cc(C)c2cccc(C)c2n1 [2,4,8-Trimethylquinoline] | 4.5 |  |
| 7.5 | Cc1cc(C)nc(C)c1 [2,4,6-Collidine, 2,4,6-trimethylpyridine] |  |  |
| 7.3 | Cc1ccnc2ccccc12 [4-Methylquinoline] | 5.2 |  |
| 6.6 | Cc1cccc(C)n1 [2,6-Lutidine] | 6.8 |  |
| 9.5 | c1ccc(-c2ccnc3c2ccc2c(-c4ccccc4)ccnc23)cc1 [Bathophenanthroline, 4,7-diphenyl-1,10-phenanthroline] |  |  |
| 7.7 | Cc1nc(C)c(C)c(C)c1C [Pentamethylpyridine] |  |  |
| 7.5 | c1cnc2c(c1)ccc1cccnc12 [1,10-Phenanthroline] |  |  |
| 7.0 | Cc1ccncc1C [3,4-Lutidine, 3,4-dimethylpyridine] | 6.5 |  |
| 7.5 | Cc1cc(C)c2ccccc2n1 [2,4-Dimethylquinoline] | 5.1 |  |

| SMILES | Effective Critical Dimension [1] [Angstroms] | pKa [2] | relative base strength ([2]; versus 1,10-phenanthroline) |
| --- | --- | --- | --- |
| c1ccc2c(c1)ccc1cccnc12 [7,8-Benzoquinoline] | 7.5 |  |  |
| c1ccncc1 [Pyridine, reference compound] | 6.2 |  |  |
| c1ccc2c(c1)ccc1ncccc12 [5,6-Benzoquinoline] | 7.5 |  | slightly stronger base than 1,10-phenanthroline |
